Experimental data as given in US20190308994A1, “Topical Pharmaceutical Formulations For Treating Inflammatory-Related Conditions” (Anacor Pharmaceuticals, Inc., priority 2015, published 2019).
Values after ≈ are worked out from the molar mass of the structure shown. Read-outs that look alike come from different tables or passages of the source.

Tests used:
[1] = Equilibrium solubility of crisaborole in solvents by HPLC; type: physicochemical; details: thermodynamic from solid, read-out: Solubity by HPLC
Procedure: (§1) One of the key aspects encountered in reformulating crisaborole was that the active agent be fully dissolved within its solvent. A selection criterion of greater than 10% w/w crisaborole solubility was used to select solvents capable of carrying at least 1% crisaborole in a final drug product formulation, assuming the drug product contained 10% solvent. The solubility of crisaborole in ten solvents was evaluated to identify those with crisaborole solubility greater than 10% w/w by visual assessment. The equilibrium solubility of the best solvents was subsequently verified by HPLC.

[2] = Solubility of crisaborole in solvents by visual assessment; type: physicochemical
Procedure: as §1

`N#Cc1ccc(Oc2ccc3c(c2)COB3O)cc1` [Crisaborole Form II, 5-(4-cyanophenoxy)-1,3-dihydro-1-hydroxy-2,1-benzoxaborole] gave a solubility ([1]; oil or lipid, in Ethylhexyl Hydroxystearate) of 21 mg/mL (≈ 83.6 mM), a solubility ([1]; oil or lipid, in Oleyl Alcohol, NF) of 33 mg/mL (≈ 131 mM) and a solubility ([1]; organic solvent or mixture, in Hexylene Glycol, NF) of 356 mg/mL (≈ 1420 mM). The solubility ([1]; organic solvent or mixture, in Polyethylene Glycol (PEG) 400, USP) was 164 mg/mL (≈ 653 mM), the solubility ([1]; organic solvent or mixture, in Propylene Carbonate, NF) was 96 mg/mL (≈ 382 mM) and the solubility ([1]; organic solvent or mixture, in Propylene Glycol, USP) was 274 mg/mL (≈ 1090 mM). The solubility ([1]; organic solvent or mixture, in Transcutol P, NF) was 21.2 mg/mL (≈ 84.4 mM), the “Visual Solubity” value ([2]; in Diisopropyl Adipate) was 7.7% w/w and the “Visual Solubity” value ([2]; in Ethylhexyl Hydroxystearate) was 1.6% w/w. For the same compound, the “Visual Solubity” value ([2]; in Hexylene Glycol, NF) was 25.9% w/w, the “Visual Solubity” value ([2]; in Isopropyl Myristate, NF) was 0.6% w/w and the “Visual Solubity” value ([2]; in Oleic Acid, NF) was <0.1% w/w. The “Visual Solubity” value ([2]; in Oleyl Alcohol, NF) was 2.3% w/w, the “Visual Solubity” value ([2]; in Polyethylene Glycol (PEG) 400, USP) was 15.0% w/w and the “Visual Solubity” value ([2]; in Propylene Carbonate, NF) was 9.9% w/w. For the same compound, the “Visual Solubity” value ([2]; in Propylene Glycol, USP) was 24.0% w/w and the “Visual Solubity” value ([2]; in Transcutol P, NF) was 28.6% w/w.
